Here are results for 14 molecules from US20110144079A1, “ANTIMICROBIAL SYSTEM” (priority 2008, published 2011).

Experiment in all cases: Broth microdilution MIC/MBC
On the technique in general: In broth dilution the organism is exposed to a series of concentrations in liquid medium.

The subject of assay [1] is S. epidermidis ATCC 35984. It is filed as cell-based. To be noted: S. epidermidis ATCC 35984, 24 h at 37° C. As for the experimental part: (§1) Broth microdilution tests were performed according to NCCLS guidelines. Serial two-fold dilutions of each imidazolium salt (from an original working solution which had been 0.22 μm sterile filtered) in Mueller-Hinton Broth (MHB) (100 μl) were prepared in 96-well micro-titre plates over the range 0.0000625-1% w/v. The inoculum to be tested was prepared by adjusting the turbidity of an actively overnight growing broth culture in MHB to an optical density at 550 nm equivalent to 1×10^8 CFU/ml. The suspension was further diluted to provide a final inoculum density of 2×10^5 CFU/ml in MHB as verified by total viable count. The inoculum to be tested (100 μl, 2×10^5 CFU ml^−1) was added to each well of the microdilution trays which were incubated aerobically for 24 h at 37° C. Positive and negative growth controls were included in every assay (6 replicates). After determining the MICs, minimum bactericidal concentrations (MBCs) were determined by spreading 20 μl of suspension from wells showing no growth onto MHA plates, which were then incubated for 24 h and examined for 99.9% killing.

A further assay concerns E. coli NCTC 8196. It is filed as cell-based. The conditions noted are these: E. coli NCTC 8196, 24 h at 37° C. The procedure:
as §1

In another assay the test system is B. cereus. It is filed as cell-based. To be noted: 24 h at 37° C. The procedure: as §1
Another assay deals with C. tropicalis NCTC 7393. Format: cell-based. The conditions noted are these: C. tropicalis NCTC 7393, 24 h at 37° C. As for the experimental part: as §1
The test system of another assay is K. aerogenes NCTC 7427. Format: cell-based. The conditions noted are these: K. aerogenes NCTC 7427, 24 h at 37° C. The procedure: as §1
A further assay concerns S. aureus ATCC 29213. It is filed as cell-based. The conditions noted are these: S. aureus ATCC 29213, 24 h at 37° C. As for the experimental part: as §1
The subject of another assay is P. mirabilis NCTC 12442. It is filed as cell-based. The conditions noted are these: P. mirabilis NCTC 12442, 24 h at 37° C. The procedure: as §1
Assay [2] relates to S. epidermidis ATCC 12228. It is filed as cell-based. The conditions noted are these: S. epidermidis ATCC 12228, 24 h at 37° C. The procedure:
as §1

The next assay concerns MRSA. Format: cell-based, methicillin-resistant S. aureus. The conditions noted are these: Staphylococcus aureus, 24 h at 37° C. The procedure: as §1
For a further assay, the system named is P. aeruginosa PA01. It is filed as cell-based. To be noted: Pseudomonas aeruginosa, PA01, 24 h, P. aeruginosa PA01, 24 h at 37° C.; read-out: MIC. The procedure:
as §1

Broadly, the MIC is the least concentration at which growth counts as inhibited. In the case of `CCCCCCCC[n+]1ccn(C)c1.[Br][Ag-][Br]` [1-alkyl-3-methylimidazolium-AgBr2 8], the MIC was 68.35 µM in assay [1]; 136.69 µM against E. coli NCTC 8196; 168.5 µM in the assay with B. cereus; 168.5 µM in the assay with C. tropicalis NCTC 7393; 168.5 µM in the assay on K. aerogenes NCTC 7427; 136.69 µM in the assay on S. aureus ATCC 29213. The minimum inhibitory concentration (MIC) with P. mirabilis NCTC 12442 worked out at 168.5 µM; in assay [2] it was 68.35 µM.
In the case of `CCCCCCCCCCn1cc[n+](C)c1.[Br][Ag-][Br]` [1-alkyl-3-methylimidazolium-AgBr2 10], the minimum inhibitory concentration (MIC) in [1] stood at 32.68 µM; against E. coli NCTC 8196, 32.68 µM; in the assay with B. cereus, 79.78 µM; in the assay on C. tropicalis NCTC 7393, 79.78 µM; against K. aerogenes NCTC 7427, 79.78 µM; against S. aureus ATCC 29213, 32.68 µM. Also, the results for the MIC (against P. mirabilis NCTC 12442; in [2]) were 79.78 µM and 32.68 µM, respectively.
As to `CCCCCCCCCCCC[n+]1ccn(C)c1.[Br][Ag-][Br]` [1-alkyl-3-methylimidazolium-AgBr2 12], the minimal inhibitory concentration (MIC) is reported as 15.66 µM in [1]; 31.32 µM against E. coli NCTC 8196; 68.81 µM in the assay on B. cereus; 75.85 µM in the assay on C. tropicalis NCTC 7393; 34.40 µM in the assay on K. aerogenes NCTC 7427; 15.66 µM against S. aureus ATCC 29213. The minimum inhibitory concentration (MIC) is 34.40 µM in the assay with P. mirabilis NCTC 12442 and 31.32 µM in [2].
Consider `CCCCCCCCCCCCCC[n+]1ccn(C)c1.[Br][Ag-][Br]` [1-alkyl-3-methylimidazolium-AgBr2 14], for which the MIC in assay [1] stood at 15.03 µM; against E. coli NCTC 8196, 15.03 µM; in the assay with B. cereus, 72.2 µM; against C. tropicalis NCTC 7393, 36.1 µM; in the assay with K. aerogenes NCTC 7427, 18.05 µM; against S. aureus ATCC 29213, 3.76 µM. Besides, the MIC is given as 18.05 µM in the assay on P. mirabilis NCTC 12442 and 15.03 µM in assay [2].
Take `CCCCCCCCCCCCCCCCn1cc[n+](C)c1.[Br][Ag-][Br]` [1-alkyl-3-methylimidazolium-AgBr2 16]: the minimal inhibitory concentration (MIC) in assay [1] was found to be 3.61 µM; with E. coli NCTC 8196 it was 28.91 µM; in the assay with B. cereus it was 68.89 µM; with C. tropicalis NCTC 7393, 34.44 µM; in the assay with K. aerogenes NCTC 7427, 34.44 µM; in the assay on S. aureus ATCC 29213 it was 7.23 µM. In addition, the results for the MIC (with P. mirabilis NCTC 12442; in assay [2]) were 34.44 µM and 3.61 µM, respectively.
For the molecule `CCCCCCCCCCCCCCCCCC[n+]1ccn(C)c1.[Br][Ag-][Br]` [1-alkyl-3-methylimidazolium-AgBr2 18], the minimal inhibitory concentration (MIC) in [1] was 13.91 µM; in the assay on E. coli NCTC 8196 it was 27.83 µM; in the assay on B. cereus, 65.87 µM; against C. tropicalis NCTC 7393, 65.87 µM; against K. aerogenes NCTC 7427 it was 65.87 µM; against S. aureus ATCC 29213, 27.83 µM. Further, the MIC worked out at 65.87 µM in the assay on P. mirabilis NCTC 12442 and 13.91 µM in assay [2].
In the case of `CCCCCCCC[n+]1ccn(C)c1.CCCCCCCC[n+]1ccn(C)c1.[Cl][Cu-2]([Cl])([Cl])[Cl]` [(1-alkyl-3-methylimidazolium)2CuCl4 8], the MIC in assay [1] is on record as 470 µM; in the assay with E. coli NCTC 8196, 470 µM; in the assay with B. cereus, 1883.21 µM; in the assay on C. tropicalis NCTC 7393 it was 941.6 µM; with K. aerogenes NCTC 7427, 941.6 µM; with S. aureus ATCC 29213 it was 470 µM. Moreover, the figures for the MIC (in the assay with P. mirabilis NCTC 12442; in assay [2]) were 941.6 µM and 470 µM, respectively.
Take `CCCCCCCCCC[n+]1ccn(C)c1.CCCCCCCCCC[n+]1ccn(C)c1.[Cl][Cu-2]([Cl])([Cl])[Cl]` [(1-alkyl-3-methylimidazolium)2CuCl4 10]: the minimal inhibitory concentration (MIC) in assay [1] turned out to be 101.74 µM; against E. coli NCTC 8196, 101.74 µM; against B. cereus, 1746.4 µM; against C. tropicalis NCTC 7393, 218.3 µM; in the assay on K. aerogenes NCTC 7427 it was 218.3 µM; against S. aureus ATCC 29213, 101.74 µM. Further, the MIC was 218.3 µM in the assay with P. mirabilis NCTC 12442 and 101.74 µM in [2].
Consider `CCCCCCCCCCCCn1cc[n+](C)c1.CCCCCCCCCCCCn1cc[n+](C)c1.[Cl][Cu-2]([Cl])([Cl])[Cl]` [(1-alkyl-3-methylimidazolium)2CuCl4 12], for which the MIC in assay [1] was 50.88 µM; with E. coli NCTC 8196 it was 50.88 µM; in the assay on B. cereus, 407 µM; with C. tropicalis NCTC 7393, 50.88 µM; against K. aerogenes NCTC 7427, 50.88 µM; against S. aureus ATCC 29213 it was 50.88 µM. In addition, the minimal inhibitory concentration (MIC) (against P. mirabilis NCTC 12442; in assay [2]) was 50.88 µM each time.
As to `CCCCCCCCCCCCCCn1cc[n+](C)c1.CCCCCCCCCCCCCCn1cc[n+](C)c1.[Cl][Cu-2]([Cl])([Cl])[Cl]` [(1-alkyl-3-methylimidazolium)2CuCl4 14], the MIC in [1] is reported as 40.02 µM; in the assay with E. coli NCTC 8196 it was 40.02 µM; with B. cereus, 80.06 µM; against C. tropicalis NCTC 7393 it was 20.01 µM; against K. aerogenes NCTC 7427 it was 40.02 µM; with S. aureus ATCC 29213, 40.02 µM. The minimum inhibitory concentration (MIC) (with P. mirabilis NCTC 12442; in [2]) was 20.01 µM each time.
With `CCCCCCCCCCCCCCCCn1cc[n+](C)c1.CCCCCCCCCCCCCCCCn1cc[n+](C)c1.[Cl][Cu-2]([Cl])([Cl])[Cl]` [(1-alkyl-3-methylimidazolium)2CuCl4 16], the MIC was found to be 22.41 µM in [1]; 44.81 µM in the assay on E. coli NCTC 8196; 89.63 µM in the assay with B. cereus; 44.81 µM in the assay on C. tropicalis NCTC 7393; 44.81 µM against K. aerogenes NCTC 7427; 22.41 µM against S. aureus ATCC 29213. Moreover, the minimal inhibitory concentration (MIC) (against P. mirabilis NCTC 12442; in assay [2]) was 44.81 µM in each case.
Regarding `CCCCCCCCCCCCCCCCCCn1cc[n+](C)c1.CCCCCCCCCCCCCCCCCCn1cc[n+](C)c1.[Cl][Cu-2]([Cl])([Cl])[Cl]` [(1-alkyl-3-methylimidazolium)2CuCl4 18], the MIC in assay [1] stood at 131.98 µM; in the assay on E. coli NCTC 8196, 131.98 µM; with B. cereus, 169.15 µM; with C. tropicalis NCTC 7393, 84.57 µM; with K. aerogenes NCTC 7427, 338.29 µM; in the assay on S. aureus ATCC 29213, 131.98 µM. Moreover, the MIC against P. mirabilis NCTC 12442 turned out to be 338.29 µM; in [2], 131.98 µM.
In the case of `CCCCCCCCCCCCCC[n+]1ccn(C)c1C` [IL1, 1,2-dimethyl-3-tetradecylimidazolium bromide, reference compound], the MIC with MRSA was 186 µM; against E. coli NCTC 8196 (Escherichia coli, NCTC8196) it was 46.5 µM; against B. cereus (Bacillus cereus) it was 372 µM; in the assay on P. mirabilis NCTC 12442 (Proteus mirabilis, NCTC12442), 372 µM; in [2] (Staphylococcus epidermidis, ATCC12228), 213 µM; in the assay with P. aeruginosa PA01, 743 µM.
As to `CCCCCCCCCCCCCC[N+](C)(C)CCO` [IL2, N,N-dimethyl-N-(2-hydroxyethyl)-N-tetradecylammonium bromide, reference compound], the minimal inhibitory concentration (MIC) in the assay on E. coli NCTC 8196 (Escherichia coli, NCTC8196) was 53.4 µM; in the assay on B. cereus (Bacillus cereus), 13.3 µM; with P. mirabilis NCTC 12442 (Proteus mirabilis, NCTC12442), 427 µM; in the assay on P. aeruginosa PA01, 427 µM.
